Assay results: patent US12318390B2, “Pharmaceutical composition for oral administration comprising aminopyrimidine derivative or its salt” (YUHAN CORPORATION, priority 2018, dated 2025)
In brackets after ≈: the same amount, converted by molar mass.

Experiments:
[1] = Stability test under stressed condition; format: physicochemical; settings: for PXRD pattern: stressed condition 60 ± 2° C., 75 ± 5% RH; for Purity: HPLC
[2] = Stability test under accelerated condition; format: physicochemical; settings: for Purity: HPLC
[3] = Comparative pharmacokinetic test in normal rats; format: in vivo, rats (SD rat)
From the text: (§1) Specifically, in the normal rats and the esomeprazole-treated rats, maximum blood concentrations (Cmax) and areas under the blood concentration curve (AUClast) were compared with each other, respectively, to evaluate the absorption of drugs in animals.

[4] = Comparative pharmacokinetic test in esomeprazole-treated rats; format: in vivo, rats (SD rat); settings: for area under the blood concentration curve reduced compared with the normal rats / maximum blood concentration reduced compared with the normal rats: esomeprazole-treated rats vs normal rats
From the text: as §1
The results (the maximum blood concentration and the area under the blood concentration curve) of the comparative pharmacokinetic test obtained therefrom were shown in Table 7 and FIGS. 5 and 6.

[5] = Pharmacokinetic test for Lazertinib mesylate and free-base in beagle dogs; format: in vivo; settings: beagle dog
From the text: The results (the maximum blood concentration and the area under the blood concentration curve) of the comparative pharmacokinetic test obtained therefrom were shown in Table 8 and FIG. 7.

Solubility test = format: physicochemical; settings: thermodynamic from solid, 37° C.
Description: In addition, 100 mg of Lazertinib free-base (prepared in the same manner as the method described in WO 2016/060443) was tested under the same conditions.

[6] = stressed condition, Start to 4 weeks
[7] = accelerated condition, 3 months
[8] = accelerated condition, 6 months
[9] = accelerated condition, Start to 6 months
[10] = Normal rat, oral 30 mg/5 mL/kg in 0.5% methyl cellulose
[11] = Esomeprazole-treated rat (5 mg/kg i.v. for 3 days), oral 30 mg/5 mL/kg
[12] = oral 5 mg/2 mL/kg in 0.5% methyl cellulose
[13] = esomeprazole-treated rats, oral 30 mg/kg

mesylic acid salt of N-(5-(4-(4-((dimethylamino)methyl)-3-phenyl-1H-pyrazol-1-yl)pirimidine-2-ylamino)-4-methoxy-2-morpholinophenyl)acrylamide [Lazertinib mesylate]
PXRD pattern ([1]; 2 weeks): Same
PXRD pattern ([1]; 4 weeks): Same
Appearance (color) ([1]; stressed condition, 2 weeks): White
Content ([1]; stressed condition, 2 weeks): 97.7%
DSC Onset ([1]; stressed condition, 2 weeks): 214 °C
Water Content ([1]; stressed condition, 2 weeks): 2.71%
Purity ([1]; stressed condition, 2 weeks): 99.3%
Appearance (color) ([1]; stressed condition, 4 weeks): White
Content ([1]; stressed condition, 4 weeks): 98.9%
DSC Onset ([1]; stressed condition, 4 weeks): 214 °C
Water Content ([1]; stressed condition, 4 weeks): 2.70%
Purity ([1]; stressed condition, 4 weeks): 99.3%
Appearance (color) ([1]; stressed condition, Start): White
Content ([1]; stressed condition, Start): 98.8%
DSC Onset ([1]; stressed condition, Start): 214 °C
Water Content ([1]; stressed condition, Start): 2.48%
Content Variation [1, 6]: +0.1%
Purity Variation [1, 6]: +0.1%
Water Content Variation [1, 6]: +0.22%
Purity ([1]; stressed condition, Start): 99.2%
PXRD pattern ([2]; accelerated condition 40 ± 2° C., 75 ± 5% RH, 1 month): Same
Appearance (color) ([2]; accelerated condition, 1 month): White
Content ([2]; accelerated condition, 1 month): 98.9%
DSC Onset ([2]; accelerated condition, 1 month): 214 °C
Water Content ([2]; accelerated condition, 1 month): 2.73%
Purity ([2]; accelerated condition, 1 month): 99.3%
Appearance (color) [2, 7]: White
Content [2, 7]: 98.9%
DSC Onset [2, 7]: 214 °C
PXRD pattern [2, 7]: Same
Water Content [2, 7]: 3.19%
Purity [2, 7]: 99.3%
Appearance (color) [2, 8]: White
Content [2, 8]: 99.1%
DSC Onset [2, 8]: 214 °C
PXRD pattern [2, 8]: Same
Water Content [2, 8]: 3.01%
Purity [2, 8]: 99.3%
Appearance (color) ([2]; accelerated condition, Start): White
Content ([2]; accelerated condition, Start): 98.8%
DSC Onset ([2]; accelerated condition, Start): 214 °C
Water Content ([2]; accelerated condition, Start): 2.48%
Content Variation [2, 9]: +0.3%
Purity Variation [2, 9]: +0.1%
Water Content Variation [2, 9]: +0.53%
Purity ([2]; accelerated condition, Start): 99.2%
Area under the blood concentration curve (AUClast) [3, 10]: 8139.0 ng·h/mL
Maximum blood concentration (Cmax) [3, 10]: 815.6 ng/mL
Area under the blood concentration curve (AUClast) [4, 11]: 5210.9 ng·h/mL
Maximum blood concentration (Cmax) [4, 11]: 427.5 ng/mL
area under the blood concentration curve reduced compared with the normal rats [4]: 36.0%
maximum blood concentration reduced compared with the normal rats [4]: 47.6%
Area under the blood concentration curve (AUClast) [5, 12]: 811.5 ng·h/mL
Maximum blood concentration (Cmax) [5, 12]: 134.7 ng/mL

C=CC(=O)Nc1cc(Nc2nccc(-n3cc(CN(C)C)c(-c4ccccc4)n3)n2)c(OC)cc1N1CCOCC1 [Lazertinib free-base, N-(5-(4-(4-((dimethylamino)methyl)-3-phenyl-1H-pyrazol-1-yl)pirimidine-2-ylamino)-4-methoxy-2-morpholinophenyl)acrylamide]
solubility at 12 h (Solubility test; fassgf or other biorelevant, Artificial gastric juice (FaSSGF)): 1500 µg/mL (≈ 2700 µM)
solubility at 12 h (Solubility test; organic solvent or mixture, Ethanol): 599 µg/mL (≈ 1080 µM)
solubility at 12 h (Solubility test; pH 1.2 buffer solution, simulated gastric fluid, pH 1.2 buffer): 4400 µg/mL (≈ 7930 µM)
solubility at 12 h (Solubility test; pH 2.0 buffer solution, simulated gastric fluid, pH 2.0 buffer): 3700 µg/mL (≈ 6670 µM)
solubility at 12 h (Solubility test; pH 3.0 buffer solution, aqueous buffer, pH 3.0 buffer): 1900 µg/mL (≈ 3430 µM)
solubility at 12 h (Solubility test; pH 4.0 buffer solution, aqueous buffer, pH 4.0 buffer): 1000 µg/mL (≈ 1800 µM)
solubility at 12 h (Solubility test; pH 5.0 buffer solution, aqueous buffer, pH 5.0 buffer): 10 µg/mL (≈ 18 µM)
solubility at 12 h (Solubility test; pH 6.0 buffer solution, aqueous buffer, pH 6.0 buffer): 3 µg/mL (≈ 5.41 µM)
solubility at 12 h (Solubility test; pH 7.0 buffer solution, aqueous buffer, pH 7.0 buffer): 1 µg/mL (≈ 1.8 µM)
solubility at 12 h (Solubility test; Artificial intestinal fluid (FaSSIF)): 27 µg/mL (≈ 48.7 µM)
solubility at 12 h (Solubility test; water): 1 µg/mL (≈ 1.8 µM)
AUC(0-t) ([3]; male, SD, blood, 30 mg/kg, Normal rat, oral 30 mg/5 mL/kg in 0.5% methyl cellulose, read-out: Area under the blood concentration curve (AUClast)): 7290 ng·h/mL
Cmax ([3]; male, SD, blood, 30 mg/kg, Normal rat, oral 30 mg/5 mL/kg in 0.5% methyl cellulose, read-out: Maximum blood concentration (Cmax)): 726 ng/mL
area under the blood concentration curve lower than Lazertinib mesylate ([3]; normal rats, oral 30 mg/kg): 10.4%
maximum blood concentration lower than Lazertinib mesylate ([3]; normal rats, oral 30 mg/kg): 11.0%
area under the blood concentration curve reduced compared with the normal rats [4]: 63.8%
maximum blood concentration reduced compared with the normal rats [4]: 69.3%
area under the blood concentration curve lower than Lazertinib mesylate [4, 13]: 49.4%
maximum blood concentration lower than Lazertinib mesylate [4, 13]: 47.8%
AUC(0-t) ([4]; male, SD, blood, Esomeprazole-treated rat (i.v. for 3 days), oral 30 mg/5 mL/kg, read-out: Area under the blood concentration curve (AUClast)): 2640 ng·h/mL
Cmax ([4]; male, SD, blood, Esomeprazole-treated rat (i.v. for 3 days), oral 30 mg/5 mL/kg, read-out: Maximum blood concentration (Cmax)): 223 ng/mL
area under the blood concentration curve lower than Lazertinib mesylate ([5]; oral 5 mg/kg): 50.4%
maximum blood concentration lower than Lazertinib mesylate ([5]; oral 5 mg/kg): 40.1%
AUC(0-t) ([5]; male, blood, 5 mg/kg, oral 5 mg/2 mL/kg in 0.5% methyl cellulose, read-out: Area under the blood concentration curve (AUClast)): 379 ng·h/mL
Cmax ([5]; male, blood, 5 mg/kg, oral 5 mg/2 mL/kg in 0.5% methyl cellulose, read-out: Maximum blood concentration (Cmax)): 80.7 ng/mL
